According to patent US9957263B2, “Bromodomain inhibitors” (AbbVie Inc., priority 2013, dated 2018):

Assays:
BRD4 (BDI_K57-E168) = BRD4 (BDI_K57-E168) (Homo sapiens (Human), UniProt O60885); assay: TR-FRET bromodomain binding assay, BRD4 first bromodomain; conditions: His-tagged BD1, Alexa647-labeled probe 100 nM
Outline: (§1)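 His-tagged bromodomain (8 nM) was incubated 1 h at room temperature with Eu-anti-His antibody (1 nM), Alexa647-labeled BET-inhibitor probe (100 nM for BDI, 30 nM for BDII) and compound (50 μM-0.85 nM, 2% DMSO) in pH 6.0 phosphate buffer. TR-FRET ratio read; IC50 from 4-parameter fit converted to Ki using probe Kd.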

BRD4 (BDII_E352-M457) = BRD4 (BDII_E352-M457) (Homo sapiens (Human), UniProt O60885); assay: TR-FRET bromodomain binding assay, BRD4 second bromodomain; conditions: His-tagged BD2, Alexa647-labeled probe 30 nM
Outline: as §1

| SMILES | Ki (BRD4 (BDI_K57-E168)) | Ki (BRD4 (BDII_E352-M457)) |
| --- | --- | --- |
| Cn1cc(-c2cc(S(C)(=O)=O)ccc2Oc2cccc(C(=O)NCc3cc(F)cc(F)c3)c2)c2cc[nH]c2c1=O [Example 36, N-(3,5-difluorobenzyl)-3-[2-(6-methyl-7-oxo-6,7-dihydro-1H-pyrrolo[2,3-c]pyridin-4-yl)-4-(methylsulfonyl)phenoxy]benzamide] | 14 nM | 5.7 nM |
| Cn1cc(-c2cc(S(C)(=O)=O)ccc2Oc2cccc(NS(=O)(=O)C3CC3)c2)c2cc[nH]c2c1=O [Example 49, N-{3-[2-(6-methyl-7-oxo-6,7-dihydro-1H-pyrrolo[2,3-c]pyridin-4-yl)-4-(methylsulfonyl)phenoxy]phenyl}cyclopropanesulfonamide] | 4.4 nM | 1 nM |
| CCS(=O)(=O)c1ccc(OCC2CC2(F)F)c(-c2cn(C)c(=O)c3[nH]c(CN4CCN(c5cnccn5)CC4)cc23)c1 (centres unmarked) [Example 18, 4-{2-[(2,2-difluorocyclopropyl)methoxy]-5-(ethylsulfonyl)phenyl}-6-methyl-2-{[4-(pyrazin-2-yl)piperazin-1-yl]methyl}-1,6-dihydro-7H-pyrrolo[2,3-c]pyridin-7-one] | 4.4 nM | 48 nM |
| Cn1cc(-c2cc(S(C)(=O)=O)ccc2Oc2ccc(F)cc2F)c2cc(CNCCC(N)=O)[nH]c2c1=O [Example 159, 3-[({4-[2-(2,4-difluorophenoxy)-5-(methylsulfonyl)phenyl]-6-methyl-7-oxo-6,7-dihydro-1H-pyrrolo[2,3-c]pyridin-2-yl}methyl)amino]propanamide] | 230 nM | 156 nM |
| Cc1cc(-c2ccc(-c3cn(C)c(=O)c4[nH]ccc34)c(OCC3CC3)c2)[nH]n1 [Example 1, 4-[2-(cyclopropylmethoxy)-4-(3-methyl-1H-pyrazol-5-yl)phenyl]-6-methyl-1,6-dihydro-7H-pyrrolo[2,3-c]pyridin-7-one] | 26 nM | 55 nM |
| Cn1cc(-c2cc(S(C)(=O)=O)ccc2Oc2cccc(NCc3ccc(F)cc3)c2)c2cc[nH]c2c1=O [Example 62, 4-[2-{3-[(4-fluorobenzyl)amino]phenoxy}-5-(methylsulfonyl)phenyl]-6-methyl-1,6-dihydro-7H-pyrrolo[2,3-c]pyridin-7-one] | 3.1 nM | 1.4 nM |
| COCCNc1cccc(Oc2ccc(S(C)(=O)=O)cc2-c2cn(C)c(=O)c3[nH]ccc23)c1 [Example 64, 4-[2-{3-[(2-methoxyethyl)amino]phenoxy}-5-(methylsulfonyl)phenyl]-6-methyl-1,6-dihydro-7H-pyrrolo[2,3-c]pyridin-7-one] | 5.2 nM | 3.4 nM |
| CCS(=O)(=O)Nc1cc(-c2cn(C)c(=O)c3[nH]ccc23)c(Oc2ccc(F)cc2F)cc1CN1CCCC1c1ccccc1 (centres unmarked) [Example 14, N-{4-(2,4-difluorophenoxy)-5-(6-methyl-7-oxo-6,7-dihydro-1H-pyrrolo[2,3-c]pyridin-4-yl)-2-[(2-phenylpyrrolidin-1-yl)methyl]phenyl}ethanesulfonamide] | 71 nM | 14 nM |
| Cn1cc(-c2cc(S(C)(=O)=O)ccc2Oc2cccc(NCc3ccc4c(c3)OCCO4)c2)c2cc[nH]c2c1=O [Example 76, 4-[2-{3-[(2,3-dihydro-1,4-benzodioxin-6-ylmethyl)amino]phenoxy}-5-(methylsulfonyl)phenyl]-6-methyl-1,6-dihydro-7H-pyrrolo[2,3-c]pyridin-7-one] | 3.3 nM | 1.1 nM |
| Cn1cc(-c2cc(S(C)(=O)=O)ccc2Oc2cccc(NCc3ccc(C#N)cc3)c2)c2cc[nH]c2c1=O [Example 61, 4-[({3-[2-(6-methyl-7-oxo-6,7-dihydro-1H-pyrrolo[2,3-c]pyridin-4-yl)-4-(methylsulfonyl)phenoxy]phenyl}amino)methyl]benzonitrile] | 3.7 nM | 1.3 nM |
| CSCC(=O)N1CCC(Nc2ccc(S(C)(=O)=O)cc2-c2cn(C)c(=O)c3[nH]ccc23)CC1 [Example 91, 6-methyl-4-[2-({1-[(methylsulfanyl)acetyl]piperidin-4-yl}amino)-5-(methylsulfonyl)phenyl]-1,6-dihydro-7H-pyrrolo[2,3-c]pyridin-7-one] | 5 nM | 7.5 nM |
| CCS(=O)(=O)c1ccc(OCC2CC2(F)F)c(-c2cn(C)c(=O)c3[nH]c(CN4CCN(c5ccncc5)CC4)cc23)c1 (centres unmarked) [Example 16, 4-{2-[(2,2-difluorocyclopropyl)methoxy]-5-(ethylsulfonyl)phenyl}-6-methyl-2-{[4-(pyridin-4-yl)piperazin-1-yl]methyl}-1,6-dihydro-7H-pyrrolo[2,3-c]pyridin-7-one] | 2.5 nM | 30 nM |
| Cn1cc(-c2cc(S(C)(=O)=O)ccc2NC2CCN(S(=O)(=O)Cc3ccccc3)CC2)c2cc[nH]c2c1=O [Example 101, 4-[2-{[1-(benzylsulfonyl)piperidin-4-yl]amino}-5-(methylsulfonyl)phenyl]-6-methyl-1,6-dihydro-7H-pyrrolo[2,3-c]pyridin-7-one] | 6 nM | 5.8 nM |
| CCS(=O)(=O)Nc1cc(-c2cn(C)c(=O)c3[nH]ccc23)c(Oc2ccc(F)cc2F)cc1C(=O)O [Example 11, 5-(2,4-difluorophenoxy)-2-[(ethylsulfonyl)amino]-4-(6-methyl-7-oxo-6,7-dihydro-1H-pyrrolo[2,3-c]pyridin-4-yl)benzoic acid] | 0.8 nM | 1 nM |
| CCS(=O)(=O)Nc1cc(-c2cn(C)c(=O)c3[nH]ccc23)c(Oc2ccc(F)cc2F)cc1C(=O)NC1CCCC1 [Example 9, N-cyclopentyl-5-(2,4-difluorophenoxy)-2-[(ethylsulfonyl)amino]-4-(6-methyl-7-oxo-6,7-dihydro-1H-pyrrolo[2,3-c]pyridin-4-yl)benzamide] | 1.7 nM | 2 nM |
| Cn1cc(-c2cc(S(C)(=O)=O)ccc2Oc2cccc(NCc3ccccc3C#N)c2)c2cc[nH]c2c1=O [Example 71, 2-[({3-[2-(6-methyl-7-oxo-6,7-dihydro-1H-pyrrolo[2,3-c]pyridin-4-yl)-4-(methylsulfonyl)phenoxy]phenyl}amino)methyl]benzonitrile] | 33 nM | 19 nM |
| COc1ccc(CCC(=O)N2CCC(Nc3ccc(S(C)(=O)=O)cc3-c3cn(C)c(=O)c4[nH]ccc34)CC2)c(OC)c1OC [Example 92, 6-methyl-4-[5-(methylsulfonyl)-2-({1-[3-(2,3,4-trimethoxyphenyl)propanoyl]piperidin-4-yl}amino)phenyl]-1,6-dihydro-7H-pyrrolo[2,3-c]pyridin-7-one] | 15 nM | 33 nM |
| CCNC(=O)c1cc2c(-c3ccc(C(=O)N(CCC(=O)OC)c4ccccc4)cc3Oc3c(C)cccc3C)cn(C)c(=O)c2[nH]1 [Example 160, methyl 3-[{3-(2,6-dimethylphenoxy)-4-[2-(ethylcarbamoyl)-6-methyl-7-oxo-6,7-dihydro-1H-pyrrolo[2,3-c]pyridin-4-yl]benzoyl}(phenyl)amino]propanoate] | 1710 nM | 9.99 nM |
| Cc1cc(F)ccc1S(=O)(=O)Nc1cccc(Oc2ccc(S(C)(=O)=O)cc2-c2cn(C)c(=O)c3[nH]ccc23)c1 [Example 52, 4-fluoro-2-methyl-N-{3-[2-(6-methyl-7-oxo-6,7-dihydro-1H-pyrrolo[2,3-c]pyridin-4-yl)-4-(methylsulfonyl)phenoxy]phenyl}benzenesulfonamide] | 2 nM | 1.1 nM |
